Measurements published in US11952611B2, “Methods and systems for detection of antibiotic resistance” (Laboratory Corporation of America Holdings, priority 2017, dated 2024).

What was measured:
Assay type in all cases: cell-based, Staphylococcus aureus
MSSA = assay: Recombinant phage luciferase assay, oxacillin vs cefoxitin (Table 1), MSSA strains
Method: Bacterial strains were serially diluted to approximately 1×10^3 CFU/mL and transferred to a 96-well plate at 135 μL per well. 15 μL of oxacillin or cefoxitin were added to the wells to reach a final concentration of 1.0 μg/mL or 2.0 μg/mL of oxicillin or 2.0 μg/mL, 4.0 μg/mL, 8.0 μg/mL, or 10.0 μg/mL of cefoxitin. The plate was then sealed and incubated at 37° C. for 2 hours. 10 μL of recombinant phage (1.6×10^8 pfu/mL) was added to each well. The plate was then re-sealed and incubated at 37° C. for 2 hours. A master mix was made containing 15 μL 5× lysis buffer, 50 μL luciferase assay buffer, and 1 μL luciferase substrate per well. 65 μL of master mix was added to each well. Luminescence from the reactions was read on a GLOMAX® Navigator and relative luminal units (RLU) for each reaction were analyzed. RLU values three times greater than an established background RLU level for LB (>750 RLU) were considered positive. The results, shown in Table 1, indicate that the recombinant phage are capable of detecting the tested bacterial strains.

MRSA = assay: Optimization of cefoxitin concentration (Table 2), MRSA strains
Method: Bacterial strains were serially diluted to approximately 1×10^3 CFU/mL and transferred to a 96-well plate at 135 μL per well. 15 μL of cefoxitin was added to the wells to reach a final concentration of 1.4 μg/mL, 1.6 μg/mL, 1.8 μg/mL or 2.0 μg/mL. The plate was then sealed and incubated at 37° C. for 2 hours. 10 μL of recombinant phage (1.6×10^8 pfu/mL) was added to each well. The plate was then re-sealed and incubated at 37° C. for an additional 2 hours. A master mix was made containing 15 μL 5× lysis buffer, 50 μL luciferase assay buffer, and 1 μL luciferase substrate per well. 65 μL of master mix was added to each well. Luminescence from the reactions were read on a GLOMAX® Navigator and relative luminal units (RLU) for each reaction were plotted and analyzed. RLU values three times greater than an established background RLU level for LB (>750 RLU) were considered positive. The results, shown in Table 2, indicate that the recombinant phage are capable of detecting these bacterial strains. […] Positive results are in bold.

BAA-1720 MRSA = assay: MRSA detection from Copan e-Swabs (Table 3)
Method: Bacterial strains were serially diluted and Copan e-Swabs™ were inoculated with 100 μL of LB with approximately the target number of cells of 1000 CFU, 500 CFU, 250 CFU, 125 CFU, 63 CFU, 31 CFU, 16 CFU, or 8 CFU. Swabs were then eluted in 1 mL modified Amies solution (included with commercially available Copan e-Swabs™). 135 μL of this solution was added to each well of a 96-well plate. 15 μL of cefoxitin was added to the wells to reach a final concentration of 1.8 μg/mL, 3.6 μg/mL, or 5.4 μg/mL. The plate was then sealed and incubated at 37° C. for 2 hours. 10 μL of recombinant phage (1.6×10^8 pfu/mL) was added to each well. The plate was then re-sealed and incubated at 37° C. for an additional 2 hours. A master mix was made containing 15 μL 5× lysis buffer, 50 μL luciferase assay buffer, and 1 μL luciferase substrate per well. 65 μL of master mix was added to each well. Luminescence from the reactions was read on a GLOMAX® Navigator and relative luminal units (RLU) for each reaction were plotted and analyzed. RLU values three times greater than an established background RLU level for modified Amies solution (>1500 RLU) were considered positive. The results, shown in Table 3, indicate that a positive MRSA determination was made with 17 CFU in a well, originating from approximately 125 CFU on a swab when incubated with the previously established cut-off of 1.8 μg/mL. Positive results are in bold.

[1] = strain 12600 MSSA, detected CFU 389
[2] = strain AR0484 MSSA, detected CFU 153
[3] = strain AR0488 MSSA, detected CFU 285
[4] = strain AR0491 MSSA, detected CFU 300
[5] = strain AR0470 MRSA, detected CFU 314
[6] = strain BAA-2313 MRSA, detected CFU 192
[7] = target swab CFU 8, detected CFU 1
[8] = target swab CFU 16, detected CFU 1
[9] = target swab CFU 31, detected CFU 1
[10] = target swab CFU 63, detected CFU 9
[11] = target swab CFU 125, detected CFU 17
[12] = target swab CFU 250, detected CFU 41
[13] = target swab CFU 500, detected CFU 72
[14] = target swab CFU 1000, detected CFU 136

Structure (SMILES): CO[C@@]1(NC(=O)Cc2cccs2)C(=O)N2C(C(=O)O)=C(COC(N)=O)CS[C@@H]21 [Cefoxitin, cefoxitin]
- detection after incubation with cefoxitin (MSSA; 2 ug/mL): selective loss of MSSA detection
- susceptibility of MSSA strains (MSSA; 2 ug/mL): susceptible
- Cefoxitin (RLU) 2 ug/mL (MSSA; [1]): 797 RLU
- Cefoxitin (RLU) 4 ug/mL (MSSA; [1]): 475 RLU
- Cefoxitin (RLU) 8 ug/mL (MSSA; [1]): 332 RLU
- Cefoxitin (RLU) 10 ug/mL (MSSA; [1]): 277 RLU
- Cefoxitin (RLU) 2 ug/mL (MSSA; [2]): 227 RLU
- Cefoxitin (RLU) 4 ug/mL (MSSA; [2]): 195 RLU
- Cefoxitin (RLU) 8 ug/mL (MSSA; [2]): 197 RLU
- Cefoxitin (RLU) 10 ug/mL (MSSA; [2]): 204 RLU
- Cefoxitin (RLU) 2 ug/mL (MSSA; [3]): 254 RLU
- Cefoxitin (RLU) 4 ug/mL (MSSA; [3]): 220 RLU
- Cefoxitin (RLU) 8 ug/mL (MSSA; [3]): 213 RLU
- Cefoxitin (RLU) 10 ug/mL (MSSA; [3]): 229 RLU
- Cefoxitin (RLU) 2 ug/mL (MSSA; [4]): 207 RLU
- Cefoxitin (RLU) 4 ug/mL (MSSA; [4]): 234 RLU
- Cefoxitin (RLU) 8 ug/mL (MSSA; [4]): 187 RLU
- Cefoxitin (RLU) 10 ug/mL (MSSA; [4]): 191 RLU
- effect on positive signal (MRSA; 1.8 ug/mL, most of the tested MRSA strains): produced a positive signal
- Cefoxitin Concentration 1.4 ug/mL (MRSA; strain AR0461 MRSA, detected CFU 140): 9488 RLU
- Cefoxitin Concentration 2 ug/mL (MRSA; strain AR0467 MRSA, detected CFU 198): 6615 RLU
- Cefoxitin Concentration 1.8 ug/mL (MRSA; strain AR0469 MRSA, detected CFU 473): 13490 RLU
- Cefoxitin Concentration 1.6 ug/mL (MRSA; [5]): 2481 RLU
- Cefoxitin Concentration 1.8 ug/mL (MRSA; [5]): 2046 RLU
- Cefoxitin Concentration 1.4 ug/mL (MRSA; [6]): 8601 RLU
- Cefoxitin Concentration 1.6 ug/mL (MRSA; [6]): 5620 RLU
- Cefoxitin Concentration 1.8 ug/mL (MRSA; [6]): 3239 RLU
- Cefoxitin Concentration 2 ug/mL (MRSA; [6]): 2385 RLU
- Cefoxitin (RLU) 1.8 ug/mL (BAA-1720 MRSA; [7]): 559 RLU
- Cefoxitin (RLU) 3.6 ug/mL (BAA-1720 MRSA; [7]): 429 RLU
- Cefoxitin (RLU) 5.4 ug/mL (BAA-1720 MRSA; [7]): 336 RLU
- Cefoxitin (RLU) 1.8 ug/mL (BAA-1720 MRSA; [8]): 1179 RLU
- Cefoxitin (RLU) 3.6 ug/mL (BAA-1720 MRSA; [8]): 470 RLU
- Cefoxitin (RLU) 5.4 ug/mL (BAA-1720 MRSA; [8]): 551 RLU
- Cefoxitin (RLU) 1.8 ug/mL (BAA-1720 MRSA; [9]): 880 RLU
- Cefoxitin (RLU) 3.6 ug/mL (BAA-1720 MRSA; [9]): 558 RLU
- Cefoxitin (RLU) 5.4 ug/mL (BAA-1720 MRSA; [9]): 1405 RLU
- Cefoxitin (RLU) 1.8 ug/mL (BAA-1720 MRSA; [10]): 1280 RLU
- Cefoxitin (RLU) 3.6 ug/mL (BAA-1720 MRSA; [10]): 1568 RLU
- Cefoxitin (RLU) 5.4 ug/mL (BAA-1720 MRSA; [10]): 1286 RLU
- Cefoxitin (RLU) 1.8 ug/mL (BAA-1720 MRSA; [11]): 2512 RLU
- Cefoxitin (RLU) 3.6 ug/mL (BAA-1720 MRSA; [11]): 1337 RLU
- Cefoxitin (RLU) 5.4 ug/mL (BAA-1720 MRSA; [11]): 2501 RLU
- Cefoxitin (RLU) 1.8 ug/mL (BAA-1720 MRSA; [12]): 3766 RLU
- Cefoxitin (RLU) 3.6 ug/mL (BAA-1720 MRSA; [12]): 4022 RLU
- Cefoxitin (RLU) 5.4 ug/mL (BAA-1720 MRSA; [12]): 3374 RLU
- Cefoxitin (RLU) 1.8 ug/mL (BAA-1720 MRSA; [13]): 11590 RLU
- Cefoxitin (RLU) 3.6 ug/mL (BAA-1720 MRSA; [13]): 7112 RLU
- Cefoxitin (RLU) 5.4 ug/mL (BAA-1720 MRSA; [13]): 7648 RLU
- Cefoxitin (RLU) 1.8 ug/mL (BAA-1720 MRSA; [14]): 23820 RLU
- Cefoxitin (RLU) 3.6 ug/mL (BAA-1720 MRSA; [14]): 17540 RLU
- Cefoxitin (RLU) 5.4 ug/mL (BAA-1720 MRSA; [14]): 18400 RLU
